According to US20050261264A1, “Rare-earth ternary complex” (priority 2000, published 2005):

Assays:
Assay type in all cases: physicochemical
[1] = Miscibility with solvents, visual evaluation at 5 wt %; parameters: key: ⊚: dissolves at room temperature; ◯: dissolves when heated for 5 minutes at 40° C.; Δ: dissolves under heating, but cooling precipitates crystals; X: does not dissolve; details: complex added at 5 wt %
Procedure: (§1) The miscibility of the rare earth complex with various media was evaluated as follows.
1) Miscibility with Solvents

[2] = Miscibility with a polymer matrix, visual evaluation; parameters: key to Miscibility, PMMA: ⊚: dissolves up to 30 wt %; ◯: dissolves up to 5 wt %; Δ: disperses up to 5 wt %, but there is turbidity; X: repelled at the polymer surface
Procedure: as §1
2) Miscibility with a Polymer Matrix
The rare earth complex serving as the sample was added in the concentrations listed with the evaluation criteria below relative to various media, and the miscibility was visually evaluated according to the following criteria. • ⊚: dissolves up to 30 wt % • ◯: dissolves up to 5 wt % • Δ: disperses up to 5 wt %, but there is turbidity • X: repelled at the polymer surface

[3] = Number of moles of bound water per mole of complex (TG-DTA); details: for Bound water (number of moles of bound water per mole of complex): Table 1, dried samples for the ternary complexes
Procedure: The number of moles of bound water per mole of complex was measured using a TG-DTA 2000 from MAC Science.
A 20 g quantity of Eu(PMS)3 was added to 100 mL of isopropanol, then 43 g ([…] the molar amount of the Eu(PMS)3) of triphenylphosphine oxide (hereinafter referred to as TPPO) was added, and the system was refluxed for 3 hours, and then gradually cooled. The resulting white powder was filtered off. The white powder thus obtained was washed with hot n-hexane, and recrystallized with water-methanol to obtain 44 g of Eu(PMS)3(TPPO)8 in the form of white acicular crystals (yield: 85%). The TG-DTA was measured for these crystals, and it was found from the weight reduction at 100° C. that the number of moles of bound water per mole of complex was 2.93. The IR, NMR, UV absorption characteristics, and elemental analysis results for the obtained Eu(PMS)3(TPPO)8(H2O)2.93 are given below.
Eu(PMS)3(TPPO)8(H2O)2.93 obtained by the above synthesis method was dried in vacuo for 3 hours at 140° C. and a reduced pressure of […]. TG-DTA measurement for the resulting white powder was carried out to obtain a weight reduction at 100° C. It was found from the obtained value that the number of moles of bound water per mole of complex was 0.18.

[4] = Luminescence quantum yield and luminescence intensity in solution
Procedure: (§2) The intensity of luminescence and the luminescence quantum yield, the quotient of dividing the number of photons emitted from a sample by the number of photons absorbed into the sample, were measured with an SS-25 from JASCO Corporation.
The luminescence quantum yield of an acetonitrile solution of the Eu(PMS)3(TPPO)8 obtained in Example 1 (europium ion concentration: 0.05 mol/L) was measured (excitation wavelength: 465 nm, maximum luminescence wavelength: 612 nm, luminescence wavelength used in measurement: 612 nm).
The solutions prepared in Examples 12 to 14 and Comparative Examples 7 to 9 and Comparative Example B were measured for luminescence intensity at the respective maximum luminescence wavelengths.
The relative luminescence intensity of the solutions used in Examples 12 to 14 and Comparative Example B: (luminescence intensity in each of Examples 12 to 14)/(luminescence intensity in Comparative Example 7) was calculated, letting 1 be the luminescence intensity in Comparative Example 7 (solution of a rare earth complex in which the ligand Z was not coordinated).
Similarly, the relative luminescence intensity in Comparative Example 9: (luminescence intensity in Comparative Example 9)/(luminescence intensity in Comparative Example 8) was calculated, letting 1 be the luminescence intensity in Comparative Example 8 (solution of a known β-diketone-type of rare earth complex in which the ligand Z was not coordinated). The relative luminescence intensity of the solution used in Comparative Example B was 1.6 times.
The luminescence quantum yield of an acetone-d6 solution of the Nd(PMS)3(TPPO)8 obtained in Example 2 (neodymium ion concentration: 0.05 mol/L) was measured (excitation wavelength: 585 nm, maximum luminescence wavelength: 1064 nm, luminescence wavelength used in measurement: 1064 nm).
The solutions prepared in Examples 15 and 16 and Comparative Examples 10 were measured for luminescence intensity at the respective maximum luminescence wavelengths. The relative luminescence intensity in Examples 15 and 16: (luminescence intensity in each of Examples 15 and 16)/(luminescence intensity in Comparative Example 10) was calculated, letting 1 be the luminescence intensity in Comparative Example 10 (rare earth complex in which the ligand Z was not coordinated).

[5] = Luminescence quantum yield and luminescence intensity in PMMA polymer matrix composition; details: PMMA rod; for Relative luminescence intensity: Nd 0.7 wt %, relative to Nd(PMS)3 (Comparative Example 12) = 1; for Luminescence quantum yield: rare earth ion 0.7 wt %, excitation 585 nm, luminescence 1064 nm
Procedure: as §2
A 1 mL quantity of refined anhydrous methyl methacrylate (MMA), 0.5 mg of AIBN, and 148 mg (0.7 wt %) as the rare earth ion concentration) of the Eu (PMS)3 (TPPO)8 obtained in Example 1 were mixed, the mixture was transferred to a Pyrex tube, and the inside of the tube was deaerated and then sealed. By reacting for 5 hours at 60° C., the polymerization of MMA was carried out. The resulting PMMA containing Eu(PMS)3 (TPPO)8 was taken out of the Pyrex tube, and a rod-shaped polymer matrix composition was obtained.
The polymer matrix compositions prepared in Examples 17 to 19 and Comparative Example 11 were measured for luminescence intensity at the respective maximum luminescence wavelengths. The relative luminescence intensity in Examples 17 to 19: (luminescence intensity in each of Examples 17 to 19)/(luminescence intensity in Comparative Example 11) was calculated, letting 1 be the luminescence intensity in Comparative Example 11 (rare earth complex in which the ligand Z was not coordinated).
A rod-shaped polymer matrix composition containing […] was obtained in the same manner as in Example 17, except that 148 mg (rare earth ion concentration: 0.7 wt %) of the Nd(PMS)3 (TPPO)8 obtained in Example 2 was used instead of Eu(PMS)3 (TPPO)8.
The polymer matrix compositions prepared in Examples 20 and 21 and Comparative Example 12 were measured for luminescence intensity at the respective maximum luminescence wavelengths. The relative luminescence intensity in Examples 20 and 21: (luminescence intensity in each of Examples 20 and 21)/(luminescence intensity in Comparative Example 12) was calculated, letting 1 be the luminescence intensity in Comparative Example 12 (rare earth complex in which the ligand Z was not coordinated).

[6] = acetone-d6 solution, Nd 0.05 mol/L, relative to Nd(PMS)3 (Comparative Example 10) = 1
[7] = acetone-d6 solution, neodymium ion 0.05 mol/L, excitation 585 nm, luminescence 1064 nm
[8] = acetonitrile solution, europium ion 0.05 mol/L, excitation 465 nm, luminescence 612 nm
[9] = acetonitrile solution, Eu 0.05 mol/L, relative to Eu(HFA)3 (Comparative Example 8) = 1

SMILES	Miscibility, Acetone [1]	Miscibility, Chloroform [1]	Miscibility, Toluene [1]	Miscibility, Water [1]	Miscibility, Epoxy resin [2]	Miscibility, Nafion [2]	Miscibility, PMMA [2]	Bound water (number of moles of bound water per mole of complex) [3]	Number of moles of bound water per mole of complex ([3]; after drying in vacuo at 140° C.)	Number of moles of bound water per mole of complex ([3]; before drying (crystals as obtained), weight reduction at 100° C.)	Relative luminescence intensity [4, 6]	Luminescence quantum yield [4, 7] [%]	Relative luminescence intensity [5]	Luminescence quantum yield [5] [%]	Relative luminescence intensity ([4]; acetonitrile solution, Eu 0.05 mol/L, relative to Eu(PMS)3 (Comparative Example 7) = 1)	Luminescence quantum yield [4, 8] [%]	Relative luminescence intensity [4, 9]
O=P(c1ccccc1)(c1ccccc1)c1ccccc1.O=P(c1ccccc1)(c1ccccc1)c1ccccc1.O=P(c1ccccc1)(c1ccccc1)c1ccccc1.O=P(c1ccccc1)(c1ccccc1)c1ccccc1.O=P(c1ccccc1)(c1ccccc1)c1ccccc1.O=P(c1ccccc1)(c1ccccc1)c1ccccc1.O=P(c1ccccc1)(c1ccccc1)c1ccccc1.O=P(c1ccccc1)(c1ccccc1)c1ccccc1.O=S(=O)([N-]S(=O)(=O)C(F)(F)F)C(F)(F)F.O=S(=O)([N-]S(=O)(=O)C(F)(F)F)C(F)(F)F.O=S(=O)([N-]S(=O)(=O)C(F)(F)F)C(F)(F)F.[Nd+3] [Nd(PMS)3(TPPO)8]	⊚	⊚	◯	X	◯ (dissolves up to 5 wt %)	◯ (dissolves up to 5 wt %)	◯ (dissolves up to 5 wt %)	0.24	0.24	3.41	1.4	1.1	80	0.8	–	–	–
O=S(=O)([N-]S(=O)(=O)C(F)(F)F)C(F)(F)F.O=S(=O)([N-]S(=O)(=O)C(F)(F)F)C(F)(F)F.O=S(=O)([N-]S(=O)(=O)C(F)(F)F)C(F)(F)F.[Nd+3] [Nd(PMS)3, reference compound]	⊚	X	X	⊚	Δ (disperses up to 5 wt %, but there is turbidity)	Δ (disperses up to 5 wt %, but there is turbidity)	X	2.32	–	–	1.0	0.8	1.0	<0.1	–	–	–
O=S(=O)([N-]S(=O)(=O)C(F)(F)F)C(F)(F)F.O=S(=O)([N-]S(=O)(=O)C(F)(F)F)C(F)(F)F.O=S(=O)([N-]S(=O)(=O)C(F)(F)F)C(F)(F)F.[2H]C([2H])([2H])S(=O)C([2H])([2H])[2H].[2H]C([2H])([2H])S(=O)C([2H])([2H])[2H].[2H]C([2H])([2H])S(=O)C([2H])([2H])[2H].[2H]C([2H])([2H])S(=O)C([2H])([2H])[2H].[2H]C([2H])([2H])S(=O)C([2H])([2H])[2H].[2H]C([2H])([2H])S(=O)C([2H])([2H])[2H].[2H]C([2H])([2H])S(=O)C([2H])([2H])[2H].[2H]C([2H])([2H])S(=O)C([2H])([2H])[2H].[Eu+3] [Eu(PMS)3 (DMSO-d6)8, reference compound]	–	–	–	–	–	–	–	–	–	–	–	–	–	–	1.6	44.0	–
O=C(C=C([O-])C(F)(F)F)C(F)(F)F.O=C(C=C([O-])C(F)(F)F)C(F)(F)F.O=C(C=C([O-])C(F)(F)F)C(F)(F)F.O=P(c1ccccc1)(c1ccccc1)c1ccccc1.O=P(c1ccccc1)(c1ccccc1)c1ccccc1.[Eu+3] [Eu(HFA)3(TPPO)2, reference compound]	⊚	◯	◯	X	◯ (dissolves up to 5 wt %)	Δ (disperses up to 5 wt %, but there is turbidity)	Δ (disperses up to 5 wt %, but there is turbidity)	0.00	–	–	–	–	–	–	–	–	4.6
O=C(C=C([O-])C(F)(F)F)C(F)(F)F.O=C(C=C([O-])C(F)(F)F)C(F)(F)F.O=C(C=C([O-])C(F)(F)F)C(F)(F)F.[Eu+3] [Eu(HFA)3, reference compound]	⊚	X	X	X	◯ (dissolves up to 5 wt %)	Δ (disperses up to 5 wt %, but there is turbidity)	X	2.00	–	–	–	–	–	–	–	8.0	1.0
